A short description of data set [1]: Clearance from in vitro human microsomes. It counts as in vitro ADME. Particulars: read-out: clearance rate from in vitro human microsomes.
Data set [2] deals with 31 of the 36 human monoaminergic receptors. As to the kind of experiment: Functional activity at human monoaminergic receptors. The note with it: 5-HT1A, 1B, 1D, 1E, 1F, 2B, 3, 4, 6A, 7A; adrenergic α1A, α1B, α1D, α2A, α2B, β2; dopamine D1-D4; histamine H1-H3.
The subject of data set [3] is mice with a deletion of the M1 muscarinic receptor (M1KO) or wild-type (WT) controls. As to the kind of experiment: Hyperactivity study with M1 knock-out mice. It is filed as in vivo. The procedure: A linear regression analysis was then conducted to determine the theoretical dose that would produce a 50% reduction of activity (ED50) and 95% confidence interval. Mice had no prior exposure to the chambers and each dose combination was tested in separate groups of mice.

Data set [4] deals with mice receiving ICV infusion of amyloid β protein fragment (25-35) or saline (sham). As to the kind of experiment: Amphetamine-induced hyperactivity study with amyloid β protein. It is filed as in vivo. The note with it: pimavanserin 0.3 mg/kg, amphetamine 3 mg/kg, FIG. 8. The procedure:
This study was conducted in acrylic chambers (42 cm×42 cm×30 cm) equipped with 16 infrared photobeams along each horizontal axis (front-to-back and side-to-side, from Accuscan Instruments, Inc. (Columbus, Ohio)). Subjects were mice receiving ICV infusion of amyloid β protein fragment (25-35) or ICV infusion of saline (sham) for 7-10 days.
An amphetamine-induced hyperactivity study was conducted on the subjects. Subjects were injected with amphetamine (3 mg/kg) or vehicle 15 minutes prior to entering motor activity chambers. Activity was measured as a total distance traveled (DT) in centimeters (cm) and was determined in 20 minute increments across a 60 minute session.
Activity was measured as a total distance traveled (DT) in centimeters (cm) and was determined in 20 minute increments across a 60 minute session.

The nature of data set [5]: Half-life upon oral administration to humans. Particulars: human, in vivo.
Data set [6] has as its target dopamine receptors including the D2 and D4 receptors. As to the kind of experiment: Affinity to dopamine receptors. It is filed as binding.
For the next data set, the system named is C57 BK/6 mice. Particulars: test phase, FIGS. 5 and 6.
The conditions of data set [7]: cited from earlier work.
For data set [8], the system named is amphetamine-induced hyperactivity in mice. As to the kind of experiment: Amphetamine-induced hyperactivity with tacrine or xanomeline. It is filed as in vivo. Particulars: amphetamine 3 mg/kg, pimavanserin 0.03 mg/kg where combined. The procedure:
This study was conducted in acrylic chambers (42 cm×42 cm×30 cm) equipped with 16 infrared photobeams along each horizontal axis (front-to-back and side-to-side, from Accuscan Instruments, Inc., Columbus, Ohio). […] Vehicle or a drug (either tacrine or xanomeline) was injected 30 minutes prior to entering activity chambers. Amphetamine (3 mg/kg) was injected into mice 15 minutes prior to entering motor activity chambers. Mice had no prior exposure to the chambers and each dose combination was tested in separate groups of mice.
Activity was measured as total distance traveled (DT) in centimeters and was determined across a 15 minute session. Dose response curves were constructed for the drug in the presence of either vehicle or a fixed dose of pimavanserin. In order to generate dose-response curves, raw DT data were converted to percent inhibition, % MPI=((DT drug or drug combination−DT amphetamine control)/(DT vehicle control−DT amphetamine control))*100. A linear regression analysis was then conducted to determine the theoretical dose that would produce a 50% reduction of activity (ED50) and 95% confidence interval.

Each structure is given as a SMILES string.

Results on 2 compounds are retold here after patent publication US20090082388A1 (ACADIA PHARMACEUTICALS INC., priority 2007, published 2009).

Experimental for C57 BK/6 mice: Subjects were male, C57 BK/6 mice purchased from Harlan Laboratories, weighing 15-20 g upon arrival. Animals were housed 8 per cage with food and water available ad libitum. Animals were housed on a 12 hr light cycle (lights on 6 am) for 4-7 days prior to behavioral testing.
Novel object recognition (NOR) was conducted in a novel environment consisting of a white plastic tub measuring 45.7×33.7×19 cm. Prior to each trial the bottom of the tub was covered with a piece of plastic lined bench top paper. There were two sets of identical objects chosen so that when given an opportunity to explore, mice would evenly divide exploration time between the objects. “A” objects were yellow, ceramic, 12-sided ramekins measuring 4 cm high×7 cm diameter. “B” objects were 8×8×4 cm stainless steel, 4-sided ramekins.
At the beginning of each test day, animals were placed in groups of 6 into clean cages. […]
During the sample phase, two identical objects (“A” or “B”, objects described above) were placed into the NOR chamber. […] The time spent exploring at each position was recorded. Directly sniffing or touching the object was recorded as exploration. […]
The test phase was conducted one to two hours after the sample phase. […] The test sessions were recorded on video and scored by an observer blind to each subject's treatment condition. Any time spent directly sniffing or touching an object was counted as exploration. […]

Take `CC(C)COc1ccc(CNC(=O)N(Cc2ccc(F)cc2)C2CCN(C)CC2)cc1` [Pimavanserin, N-(1-methylpiperidin-4-yl)-N-(4-fluorophenylmethyl)-N′-(4-(2-methylpropyloxy)phenylmethyl)carbamide]: the microsomal CLint in data set [1] is less than 10 µL/min/mg. The “functional activity (pEC50 or pKi)” value in [2] is on record as less than 6. Further, in data set [3] (M1KO mice, amphetamine 3 mg/kg ip, FIG. 9), the “amphetamine-induced activity, M1KO subjects” value is given as “reversed the augmented amphetamine response”. The “amphetamine-induced activity, WT subjects” value in data set [3] (WT mice, amphetamine 3 mg/kg ip, FIG. 9) is given as “did not alter amphetamine-induced activity”. In addition, the “percent inhibition of amphetamine-induced hyperactivity” value in data set [3] (as a function of pimavanserin dosage, FIG. 10) is reported as “increased the inhibition of amphetamine-induced hyperactivity”. The “locomotor activity, pimavanserin alone” value in [3] (no amphetamine, compared with vehicle controls, pimavanserin 0.03 or 0.3 mg/kg, FIG. 9) is on record as “no significant effect on locomotor activity”. Also, the “distance traveled following amphetamine, amyloid β mice” value in data set [4] (amyloid β mice) is “reversed the augmented locomotor response to amphetamine”. Moreover, in data set [4] (sham (control) mice), the “distance traveled following amphetamine, control mice” value is “did not reduce the hyperactivity induced by amphetamine”. For the same compound, in data set [5], the half-life (in general, how long it takes for the measured level to halve) is roughly 55 h. Moreover, the “pKi to dopamine receptors including D2 and D4” value in data set [6] was less than 6.

For the compound `Nc1c2c(nc3ccccc13)CCCC2` [tacrine], the “percent of time spent exploring a novel object” value in the data set with C57 BK/6 mice is “also increased”. Moreover, the “patients with elevated liver transaminases” value in data set [7] is “about 30%”. The total distance traveled entry in data set [8] (15 minute session, FIGS. 1 and 3) was “total distance traveled decreased”. Besides, the “percent inhibition of amphetamine-induced hyperactivity” value in data set [8] (FIGS. 2 and 4) is on record as “greater inhibition of amphetamine-induced hyperactivity”.
